Drawing on US20240158406A1, “PIPERAZINE DERIVATIVE AND USE THEREOF IN MEDICINE” (CHENGDU BAIYU PHARMACEUTICAL CO., LTD., priority 2021, published 2024), this text covers IC50 and half-life for 15 compounds.

For data set [1], the system named is NCI-H1373 cells. Put plainly: NCI-H1373 cell proliferation inhibition assay. The format is cell-based. The conditions noted are these: Homo sapiens, NCI-H1373, 144 h; 6 days of incubation, Cell Titer Blue. As to the method: Human lung adenocarcinoma cells NC-H1373 (ATCC, CRL-5866M) were cultured in a cell incubator at 37° C. and 5% CO2 using RPMI-1640 medium containing 10% FBS and 1% […]. The cells in the logarithmic growth phase were counted by digestion and inoculated in a 96-well plate at 1500 NCI-H1373 per well, and the plate was placed in an incubator overnight. The next day, test compounds were formulated in 10 mM stock solution by using DMSO and 3-fold diluted in gradient from a maximum concentration of 10 μM by using RPMI-1640 medium, and 10 gradient concentrations were set with 2 parallel wells per concentration gradient. After 6 days of incubation, 100 μL of Cell Titer Blue working solution was added to each well and the chemiluminescence value was read in a microplate reader. IC50 was calculated using GraphPad Prism7.0 software.
On the technique in general: The colour change of resazurin is a common sign of viable cells or microbes.

Data set [2] concerns the target PARP7 (Homo sapiens (Human), UniProt Q7Z3E1). Description: Enzymatic biochemical assay of PARP (chemiluminescence detection kit), PARP7. The conditions noted are these: read-out: Inhibitory activity against PAPR7 (IC50). As to the method: This assay adopted PARP1, TNKS1, TNKS2, PARP7 and PARP14 chemiluminescence detection kits (BPS, Cat No. 80551/80552/80573/80578/79729/80568) for enzymatic biochemical assay of PARP. The specific scheme was as follows: the 1× histone mixture was added to a 96-well plate at 50 μL per well, and the plate was incubated overnight at 4° C. The next day, after the plate was washed with PBST, 200 μL of blocking buffer per well was added, and the plate was incubated for 90 min. After the plate was washed with PBST again, 5 μL of inhibitor, 20 μL of 1×PARP buffer and 25 μL of […] were added to each well, and the plate was incubated at room temperature for 30 min. After the plate was washed with PBST, 100 μL of Elisa ECL substrate A and B mixture was added to each well, chemiluminescence value was immediately read using a plate reader, and IC50 values were calculated.

The nature of data set [3]: Metabolic stability in liver microsome. The data set is classed as in vitro ADME. The conditions noted are these: liver microsomes; 0.5 mg/mL CD1 mouse liver microsome, 0.5 μM test compound, NADPH and UDPGA, 37° C. The method, then: 0.5 mg/mL CD1 mouse liver microsome solution, 0.5 μM test compound, 1.0 mM reduced nicotinamide adenine dinucleotide phosphate (NADPH), and 1.0 mM uridine diphosphate-A-glucuronic acid (UDPGA) were added to the incubation plate and mixed, and the plate was incubated at 37° C. for 0, 30, 60, 120 min separately. The positive control group was set as 0.5 μM CYP3A4 probe substrate-testosterone and 0.5 μM UGT probe substrate-7-hydroxycoumarin incubated with microsomes for 0 and 120 min in the presence of NADPH and UDPGA; the negative control group (NC) was set as the test substance incubated with microsomes for 0 and 120 min without any coenzyme. After the reaction was terminated by adding pre-cooled methanol at each termination time, the reaction mixture was centrifuged at 4000 rpm for 10 min, the supernatant was taken and the remaining amount of the parent drug in the sample was measured by LC-MS/MS, the results of which are shown in Table 4.

Sequence of PARP7 (Q7Z3E1 whole entry): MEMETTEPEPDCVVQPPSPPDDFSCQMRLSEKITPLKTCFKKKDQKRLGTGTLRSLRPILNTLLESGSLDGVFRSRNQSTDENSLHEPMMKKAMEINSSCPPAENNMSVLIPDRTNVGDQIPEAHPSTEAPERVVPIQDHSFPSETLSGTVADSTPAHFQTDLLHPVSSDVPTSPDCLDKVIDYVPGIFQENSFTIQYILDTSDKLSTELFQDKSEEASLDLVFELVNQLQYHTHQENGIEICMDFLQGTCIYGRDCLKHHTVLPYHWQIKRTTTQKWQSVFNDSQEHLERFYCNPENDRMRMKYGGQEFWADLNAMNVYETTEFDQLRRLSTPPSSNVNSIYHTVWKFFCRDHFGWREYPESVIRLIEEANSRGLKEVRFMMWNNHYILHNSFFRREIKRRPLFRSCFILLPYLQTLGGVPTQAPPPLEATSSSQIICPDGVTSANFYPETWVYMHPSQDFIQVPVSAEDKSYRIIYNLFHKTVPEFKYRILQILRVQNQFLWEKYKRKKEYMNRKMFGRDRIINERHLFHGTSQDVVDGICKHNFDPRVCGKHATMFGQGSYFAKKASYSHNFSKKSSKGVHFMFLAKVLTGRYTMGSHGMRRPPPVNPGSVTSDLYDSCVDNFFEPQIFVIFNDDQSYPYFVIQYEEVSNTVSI

`[2H]C([2H])(OC[C@H](C)Nc1cn[nH]c(=O)c1C(F)(F)F)c1cc2n(n1)CCN(c1ncc(C(F)(F)F)cn1)C2([2H])[2H]` [Compound 2, (S)-4-(trifluoromethyl)-5-((1-((5-(5-(trifluoromethyl)pyrimidin-2-yl)-4,5,6,7-tetrahydropyrazolo[1,5-a]pyrazin-2-yl-4,4-d2)methoxy-d2)propan-2-yl)amino)pyridazin-3(2H)-one] displayed an IC50 in data set [1] of under 50 nM. On to `C[C@H](OC[C@H](C)Nc1cn[nH]c(=O)c1C(F)(F)F)c1cc2n(n1)CCN(c1ncc(C(F)(F)F)cn1)C2` [Compound 3-I, 4-(Trifluoromethyl)-5-(((S)-1-((S)-1-(5-(5-(trifluoromethyl)pyrimidin-2-yl)-4,5,6,7-tetrahydropyrazolo[1,5-a]pyrazin-2-yl)ethoxy)propan-2-yl)amino)pyridazin-3(2H)-one], for which the IC50 was under 10 nM in data set [2] and under 50 nM in data set [1].

As for `C[C@@H](CO[C@H](C)c1cc2n(n1)CCN(c1ncc(C(F)(F)F)cn1)C2)Nc1cn[nH]c(=O)c1C(F)(F)F` [Compound 3-II, 4-(Trifluoromethyl)-5-(((S)-1-((R)-1-(5-(5-(trifluoromethyl)pyrimidin-2-yl)-4,5,6,7-tetrahydropyrazolo[1,5-a]pyrazin-2-yl)ethoxy)propan-2-yl)amino)pyridazin-3(2H)-one], in data set [2], the IC50 lay in the range of 50 to 100 nM. As to `C[C@@H](COCc1cc2n(n1)CCN(c1cnc(C(F)(F)F)cn1)C2)Nc1cn[nH]c(=O)c1C(F)(F)F` [Compound 5, (S)-4-(trifluoromethyl)-5-((1-((5-(5-(trifluoromethyl)pyrazin-2-yl)-4,5,6,7-tetrahydropyrazolo[1,5-a]pyrazin-2-yl)methoxy)propan-2-yl)amino)pyridazin-3(2H)-one], the values for the IC50 in data set [2] and in data set [1] were under 10 nM and under 50 nM, respectively.

`C[C@@H](COCc1nc2n(n1)CCN(c1ncc(C(F)(F)F)cn1)C2)Nc1cn[nH]c(=O)c1C(F)(F)F` [Compound 9, (S)-4-(trifluoromethyl)-5-((1-((7-(5-(trifluoromethyl)pyrimidin-2-yl)-5,6,7,8-tetrahydro-[1,2,4]triazolo[1,5-a]pyrazin-2-yl)methoxy)propan-2-yl)amino)pyridazin-3(2H)-one]: the IC50 in data set [2] was 10 to 50 nM; in data set [1], under 50 nM. Further, in data set [3], the half-life at 0.5 μM is over 0.5 h. For `C[C@@H](COCc1cc2n(n1)CCN(c1ccc(C(F)(F)F)cn1)C2=O)Nc1cn[nH]c(=O)c1C(F)(F)F` [Compound 11, (S)-2-((2-((6-oxo-5-(trifluoromethyl)-1,6-dihydropyridazin-4-yl)amino)propoxy)methyl)-5-(5-(trifluoromethyl)pyridin-2-yl)-6,7-dihydropyrazolo[1,5-a]pyrazin-4(5H)-one], the IC50 in data set [1] was 50 to 100 nM. Further, the half-life at 0.5 μM in data set [3] was over 1.67 h. Take `C[C@@H](COCc1nn2c(c1Cl)CN(c1cnc(C(F)(F)F)cn1)CC2)Nc1cn[nH]c(=O)c1C(F)(F)F` [Compound 14, (S)-5-((1-((3-chloro-5-(5-(trifluoromethyl)pyrazin-2-yl)-4,5,6,7-tetrahydropyrazolo[1,5-a]pyrazin-2-yl)methoxy)propan-2-yl)amino)-4-(trifluoromethyl)pyridazin-3(2H)-one]: the IC50 in data set [1] lay in the range of 50 to 100 nM. Same read-out and setting: in the case of `C[C@@H](COCc1nn2c(c1C(F)(F)F)CN(c1ncc(C(F)(F)F)cn1)CC2)Nc1cn[nH]c(=O)c1C(F)(F)F` [Compound 19, (S)-4-(trifluoromethyl)-5-((1-((3-(trifluoromethyl)-5-(5-(trifluoromethyl)pyrimidin-2-yl)-4,5,6,7-tetrahydropyrazolo[1,5-a]pyrazin-2-yl)methoxy)propan-2-yl)amino)pyridazin-3(2H)-one] it was under 50 nM. As for `[2H]C([2H])(OC[C@H](C)Nc1cn[nH]c(=O)c1C(F)(F)F)c1cc2n(n1)CCN(c1cnc(C(F)(F)F)cn1)C2([2H])[2H]` [Compound 21, (S)-4-(trifluoromethyl)-5-((1-((5-(5-(trifluoromethyl)pyrazin-2-yl)-4,5,6,7-tetrahydropyrazolo[1,5-a]pyrazin-2-yl-4,4-d2)methoxy-d2)propan-2-yl)amino)pyridazin-3(2H)-one], the IC50 in data set [2] was under 10 nM; in data set [1] it was under 50 nM.

Turning to `[2H]C([2H])(OC[C@H](C)Nc1cn[nH]c(=O)c1C(F)(F)F)c1cc2n(n1)CCN(c1ccc(C#N)cn1)C2([2H])[2H]` [Compound 23, (S)-6-(2-((2-((6-oxo-5-(trifluoromethyl)-1,6-dihydropyridazin-4-yl)amino)propoxy)methyl-d2)-6,7-dihydropyrazolo[1,5-a]pyrazin-5(4H)-yl-4,4-d2)nicotinonitrile], the IC50 in data set [1] lay in the range of 50 to 100 nM.

In the case of `[2H]c1c(COC[C@H](C)Nc2cn[nH]c(=O)c2C(F)(F)F)nn2c1CN(c1ncc(C(F)(F)F)cn1)CC2` [Compound 25, (S)-4-(trifluoromethyl)-5-((1-((5-(5-(trifluoromethyl)pyrimidin-2-yl)-4,5,6,7-tetrahydropyrazolo[1,5-a]pyrazin-2-yl-d)methoxy)propan-2-yl)amino)pyridazin-3(2H)-one], in data set [1], the IC50 was under 50 nM. As for `C[C@@H](COCc1nc2n(n1)CCN(c1ccc(C(F)(F)F)cn1)C2)Nc1cn[nH]c(=O)c1C(F)(F)F` [Compound 26, (S)-4-(trifluoromethyl)-5-((1-((7-(5-(trifluoromethyl)pyridin-2-yl)-5,6,7,8-tetrahydro[1,2,4]triazolo[1,5-a]pyrazin-2-yl)methoxy)propan-2-yl)amino)pyridazin-3(2H)one], in data set [1], the IC50 is under 50 nM. Moreover, the half-life at 0.5 μM in data set [3] was over 1.67 h. In data set [1], `O=c1[nH]ncc(N2CCC[C@H]2COCc2nc3n(n2)CCN(c2ncc(C(F)(F)F)cn2)C3)c1C(F)(F)F` [Compound 28, (S)-4-(trifluoromethyl)-5-(2-(((7-(5-(trifluoromethyl)pyrimidin-2-yl)-5,6,7,8-tetrahydro-[1,2,4]triazolo[1,5-a]pyrazin-2-yl)methoxy)methyl)pyrrolidin-1-yl)pyridazin-3(2H)-one] registered an IC50 of 50 to 100 nM. The same measure, in the same setting: in the case of `C[C@@H](COCc1cc2n(n1)CCN(c1ncc(C(F)(F)F)s1)C2)Nc1cn[nH]c(=O)c1C(F)(F)F` [Compound 30] it was 50 to 100 nM. As for `CC[C@@H](COCc1nc2n(n1)CCN(c1ncc(C(F)(F)F)cn1)C2)Nc1cn[nH]c(=O)c1C(F)(F)F` [Compound 37, (S)-4-(trifluoromethyl)-5-((1-((7-(5-(trifluoromethyl)pyrimidin-2-yl)-5,6,7,8-tetrahydro-[1,2,4]triazolo[1,5-a]pyrazin-2-yl)methoxy)butan-2-yl)amino)pyridazin-3(2H)-one], the half-life at 0.5 μM in data set [3] is over 1.67 h.

For orientation: IC50 means the concentration that inhibits the measured activity by half. The term half-life denotes the time in which the quantity being followed falls by half. A low value points to rapid decline.
